The values that follow come from patent publication US6969724B2, “Compounds” (SmithKline Beecham-SpA, priority 1998, dated 2005).

Structures are written as SMILES.

As usually defined, the melting point is the temperature of the solid-liquid transition. As to `Cc1ccccc1C1CCN(CC2CCc3ccccc3CC2)CC1.Cl`, the melting point stood at 245 °C.

As to `CO[C@@H]1C[C@H](CN2CCC(c3ccccc3)CC2)CCc2ccccc21.Cl` (racemic), the melting point fell in the range of 213 to 215 °C.

In the case of `Cl.O=C1CC(CN2CCC(c3ccccc3)CC2)CCc2ccc(Cl)cc21` (racemic), the melting point lay in the range of 180 to 185 °C.

For `COc1cccc2c1CCC(CN1CCC(c3ccccc3)CC1)CC2O` (racemic) [Example 10, (±)-1-Methoxy-7-[(4-phenylpiperidin-1-yl)methyl]-6,7,8,9-tetrahydro-5H-benzocyclohepten-5-ol], the melting point lay in the range of 46 to 48 °C.

`C=CCO[C@@H]1C[C@H](CN2CCC(c3ccccc3)CC2)CCc2ccccc21.Cl` (racemic) returned a melting point of 126 to 128 °C.

Take `COc1ccccc1C1CCN(C[C@@H]2CCc3ccccc3[C@H](O)C2)CC1` (racemic) [Example 21, (±)-cis-7-[[4-(2-methoxyphenyl)piperidin-1-yl]methyl]-6,7,8,9-tetrahydro-5H-benzocyclohepten-5-ol]: the melting point was 72 to 74 °C.

Molecule `COc1cccc2c1CC[C@@H](CN1CCC(c3ccccc3)CC1)C[C@H]2O.Cl` (racemic) returned a melting point of 229 to 231 °C.

On to `CO[C@@H]1C[C@@H](CN2CCC(c3ccccc3)CC2)CCc2ccccc21.Cl` (racemic), for which the melting point is 220 to 222 °C.

Regarding `COc1cc(OC)cc(C2CCN(CC3CCc4ccccc4C(O)C3)CC2)c1.Cl` (racemic), the melting point fell in the range of 223 to 225 °C.

`Cc1cccc2c1CC[C@@H](CN1CCC(c3cccc(F)c3)CC1)C[C@H]2O.Cl` (racemic): the melting point lay in the range of 241 to 243 °C.

The molecule `COc1ccccc1C1CCN(CC2CCc3ccccc3C(=O)C2)CC1.Cl` (racemic) yielded a melting point of 232 to 234 °C.

In turn, `Cc1cc(C)c2c(c1)C(=O)CC(CN1CCC(c3ccccc3)CC1)CC2.Cl` (racemic) yielded a melting point of 222 to 225 °C.

In the case of `Cc1cc(C)c2c(c1)C(O)CC(CN1CCC(c3ccccc3)CC1)CC2` (racemic) [Example 20, (±)-1,3-dimethyl-7-[(4-phenylpiperidin-1-yl)methyl]-6,7,8,9-tetrahydro-5H-benzocyclohepten-5-ol], the melting point lay within 52 to 55 °C.

In turn, `Cl.O=C1CC(CN2CCC(c3ccccc3O)CC2)CCc2ccccc21` (racemic) registered a melting point of 216 to 218 °C.

Molecule `Cl.O[C@@H]1C[C@H](CN2CCC(c3ccc(OCc4ccccc4)cc3)CC2)CCc2ccccc21` (racemic) yielded a melting point of 225 to 228 °C.

Regarding `Cc1ccccc1C1CCN(C[C@@H]2CCc3ccccc3[C@H](O)C2)CC1.Cl` (racemic), the melting point is greater than 250 °C.

With `Cl.O[C@@H]1C[C@H](CN2CCC(c3cccc(F)c3)CC2)CCc2ccccc21` (racemic), the melting point is 238 to 240 °C.

In turn, `Cl.OC1CC(CN2CCC(c3ccccc3Cl)CC2)CCc2ccccc21` (racemic) had a melting point of 239 to 240 °C.

In the case of `Cl.c1ccc(C2CCN(C3Cc4ccccc4C3)CC2)cc1`, the melting point is greater than 250 °C.

`Cl.c1ccc(C2CCN(CC3CCc4ccccc4CC3)CC2)cc1` yielded a melting point greater than 250 °C.

For `COc1cccc2c1CCC(CN1CCC(c3ccccc3)CC1)CC2=O.Cl` (racemic), the melting point fell in the range of 140 to 143 °C.

As for `Cl.Oc1ccccc1C1CCN(CC2CCc3ccccc3C(O)C2)CC1` (racemic), the melting point was 158 to 160 °C.

`Cc1cccc2c1CC[C@@H](CN1CCC(c3ccccc3)CC1)C[C@H]2O` (racemic) [Example 27, (±)-cis-1-methyl-7-[(4-phenylpiperidin-1-yl)methyl]-6,7,8,9-tetrahydro-5H-benzocyclohepten-5-ol] returned a melting point of 52 to 55 °C.

For the molecule `O[C@@H]1C[C@H](CN2CCC(c3ccccc3)CC2)CCc2ccccc21` (racemic) [Example 9, (±)-cis-7-[(4-Phenylpiperidin-1-yl)methyl]-6,7,8,9-tetrahydro-5H-benzocyclohepten-5-ol], the melting point is 48 to 50 °C.

`Cl.O[C@@H]1C[C@H](CN2CCC(c3ccccc3)CC2)CCc2c(Br)cccc21` (racemic): the melting point was in the range of 220 to 224 °C.

Regarding `COc1ccc2c(c1)C(O)CC(CN1CCC(c3ccccc3)CC1)CC2` (racemic) [Example 11, (±)-3-Methoxy-7-[(4-phenylpiperidin-1-yl)methyl]-6,7,8,9-tetrahydro-5H-benzocyclohepten-5-ol], the melting point fell in the range of 45 to 48 °C.

For `Cl.OC1CC(CN2CCC(c3ccccc3)CC2)CCc2c(OCc3ccccc3)cccc21` (racemic), the melting point fell in the range of 198 to 202 °C.

In turn, `Cl.O[C@@H]1C[C@@H](CN2CCC(c3ccccc3)CC2)CCc2ccccc21` (racemic) had a melting point greater than 250 °C.

The molecule `COc1cccc2c1CC[C@H](CN1CCC(c3ccccc3)CC1)C[C@H]2O.Cl` (racemic) yielded a melting point greater than 250 °C.

Take `Cl.O=C1CC(CN2CCC(c3ccccc3)CC2)CCc2ccccc21` (racemic): the melting point was 220 °C (dec.).

`Cl.OC1CC(CN2CCC(c3ccccc3)CC2)CCc2c(F)cccc21` (racemic) had a melting point of 218 to 220 °C.

For the molecule `Cl.OC1CC(CN2CCC(c3ccc(F)cc3)CC2)CCc2ccccc21` (racemic), the melting point lay within 227 to 229 °C.

In turn, `COc1ccc2c(c1)C(=O)CC(CN1CCC(c3ccccc3)CC1)CC2.Cl` (racemic) registered a melting point of 185 to 188 °C.

`Cl.c1ccc(C2CCN(C3CCc4ccccc4CC3)CC2)cc1` returned a melting point greater than 250 °C.

The molecule `Cl.c1ccc(C2CCN(CC3Cc4ccccc4C3)CC2)cc1` yielded a melting point greater than 240 °C.

In turn, `Cl.O[C@@H]1C[C@H](CN2CCC(c3cccc(Br)c3)CC2)CCc2ccccc21` (racemic) came in with a melting point greater than 250 °C.

Molecule `Cl.O[C@@H]1C[C@H](CN2CCC(c3ccccc3)CC2)CCc2c(-c3ccccc3)cccc21` (racemic) showed a melting point of 245 to 246 °C.

As to `C1=CC(CN2CCC(c3ccccc3)CC2)Cc2ccccc21.Cl` (racemic), the melting point was in the range of 239 to 240 °C.

In turn, `C1=CC(CN2CCC(c3ccccc3)CC2)CCc2ccccc21.Cl` (racemic) showed a melting point greater than 250 °C.

`COc1cccc2c1C(O)CC(CN1CCC(c3ccccc3)CC1)CC2.Cl` (racemic) had a melting point of 176 to 189 °C.

The molecule `Cl.Oc1cccc2c1CC[C@@H](CN1CCC(c3ccccc3)CC1)C[C@H]2O` (racemic) showed a melting point of 190 to 193 °C.
